Measurements taken from patent US6630469B2, “5-HT7 receptor antagonists” (Bristol-Myers Squibb Company, priority 2000, dated 2003).

Molecular target: T1, human 5-HT7 receptor (Homo sapiens, UniProt P34969)
T1 construct: expressed in transfected cells; host or cells: CHO cells
Test: 5-HT7 Receptor Binding Assay
Conditions: membranes of CHO cells expressing human 5-HT7 receptor; 1 nM 3H-5-carboxamidotryptamine; 25° C., 60 minutes
Summary of the method: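 Membranes from CHO cells expressing human 5-HT7, 30 ug protein per well, incubated 60 min at 25° C in 50 mM HEPES with 0.1–1000 nM test compound and 1 nM ^3H-5-carboxamidotryptamine. Non-specific binding with 10 uM serotonin. Filtration and scintillation counting; IC50 by non-linear regression.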

T1 sequence (P34969 whole entry): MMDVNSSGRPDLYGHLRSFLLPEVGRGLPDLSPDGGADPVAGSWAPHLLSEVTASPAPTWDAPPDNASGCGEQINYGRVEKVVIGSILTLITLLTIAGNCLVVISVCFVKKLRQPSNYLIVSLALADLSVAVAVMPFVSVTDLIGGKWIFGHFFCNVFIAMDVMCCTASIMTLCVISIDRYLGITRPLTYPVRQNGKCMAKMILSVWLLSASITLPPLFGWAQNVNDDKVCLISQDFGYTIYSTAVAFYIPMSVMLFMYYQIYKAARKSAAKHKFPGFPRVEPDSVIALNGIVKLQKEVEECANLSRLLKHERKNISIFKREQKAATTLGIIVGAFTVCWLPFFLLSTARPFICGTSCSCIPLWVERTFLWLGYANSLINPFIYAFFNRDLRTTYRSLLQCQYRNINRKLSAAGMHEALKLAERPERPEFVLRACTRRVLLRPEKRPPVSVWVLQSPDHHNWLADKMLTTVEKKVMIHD

| IC50 [nM] | Structure (SMILES) |
| --- | --- |
| ≤ 50 | c1ccc(CCNc2nccc(NCc3cccc4c3OCO4)n2)cc1 [N^4-(4-Benzodioxolylmethyl)-N^2-(2-phenylethyl)pyrimidine-2,4-diamine] |
| ≤ 50 | Clc1ccc(CNc2ccnc(NCCOc3ccccc3)n2)cc1 [N^4-(4-Chlorophenylmethyl)-N^2-(2-phenoxyethyl)pyrimidine-2,4-diamine] |
| ≤ 50 | Clc1ccc(CNc2ccnc(NCCc3ccccc3)n2)cc1 [N^4-(4-Chlorophenylmethyl)-N^2-(2-phenylethyl)pyrimidine-2,4-diamine] |
| ≤ 50 | COc1ccc(CNc2ccnc(NCCc3ccccc3)n2)cc1 [N^4-(4-Methoxyphenylmethyl)-N^2-(2-phenylethyl)pyrimidine-2,4-diamine] |
| ≤ 50 | CC(Nc1ccnc(NCCOc2ccccc2)n1)c1ccc(Cl)cc1 (stereo not shown) [N^4-[1-(4-Chlorophenyl)ethyl]-N^2-(2-phenoxyethyl)pyrimidine-2,4-diamine] |
| ≤ 50 | CC(Nc1ccnc(NCCc2ccccc2)n1)c1ccc(Cl)cc1 (stereo not shown) [N^4-[1-(4-Chlorophenyl)ethyl]-N^2-(2-phenylethyl)pyrimidine-2,4-diamine] |
| ≤ 50 | CC(Nc1ccnc(NCCc2ccccc2)n1)c1ccc(F)cc1 (stereo not shown) [N^4-[1-(4-Fluorophenyl)ethyl]-N^2-(2-phenylethyl)pyrimidine-2,4-diamine] |
| 101 to 200 | C[C@H](Nc1cc(NCCc2ccc(N)cc2)ncn1)c1ccccc1 [N^4-[2-(4-Aminophenyl)ethyl]-N^6-[(1S)-1-phenylethyl]pyrimidine-4,6-diamine] |
| 101 to 200 | C[C@H](Nc1cc(NCCc2ccc(Br)cc2)ncn1)c1ccccc1 [N^4-[2-(4-Bromoophenyl)ethyl]-N^6-[(1S)-1-phenylethyl]pyrimidine-4,6-diamine] |
| ≤ 50 | CC(Nc1nccc(NCCOc2ccc(F)cc2)n1)c1ccccc1 (stereo not shown) [N^4-[2-(4-Fluorophenoxy)ethyl]-N^2-(1-phenylethyl)pyrimidine-2,4-diamine] |
| ≤ 50 | C[C@H](Nc1cc(NCCc2ccc(O)cc2)ncn1)c1ccccc1 [N^4-[2-(4-Hydroxyphenyl)ethyl]-N^6-[(1S)-1-phenylethyl]pyrimidine-4,6-diamine] |
| ≤ 50 | Fc1ccc(C(F)(F)F)cc1CNc1ccnc(NCCOc2ccccc2)n1 [N^4-[2-Fluoro-5-(trifluoromethyl)phenylmethyl]-N^2-(2-phenoxyethyl)pyrimidine-2,4-diamine] |
| 101 to 200 | Fc1cc(CNc2ccnc(NCCOc3ccccc3)n2)cc(C(F)(F)F)c1 [N^4-[3-Fluoro-5-(trifluoromethyl)phenylmethyl]-N^2-(2-phenoxyethyl)pyrimidine-2,4-diamine] |
| ≤ 50 | CC(C)c1ccc(CNc2ccnc(NCCOc3ccccc3)n2)cc1 [N^4-[4-(1-Methylethyl)phenylmethyl]-N^2-(2-phenoxyethyl)pyrimidine-2,4-diamine] |
| 51 to 100 | Fc1ccc(CNc2ccnc(NCCOc3ccccc3)n2)cc1C(F)(F)F [N^4-[4-Fluoro-3-(trifluoromethyl)phenylmethyl]-N^2-(2-phenoxyethyl)pyrimidine-2,4-diamine] |
| 101 to 200 | Fc1ccc(CNc2ccnc(NCCc3ccccc3)n2)cc1C(F)(F)F [N^4-[4-Fluoro-3-(trifluoromethyl)phenylmethyl]-N^2-(2-phenylethyl)pyrimidine-2,4-diamine] |
| 51 to 100 | Cc1ccc([C@@H](C)Nc2ccnc(NCCOc3ccccc3)n2)cc1 [N^4-[(1R)-1-(4-Methylphenyl)ethyl]-N^2-(2-phenoxyethyl)pyrimidine-2,4-diamine] |
| ≤ 50 | Cc1ccc([C@H](C)Nc2ccnc(NCCOc3ccccc3)n2)cc1 [N^4-[(1S)-1-(4-Methylphenyl)ethyl]-N^2-(2-phenoxyethyl)pyrimidine-2,4-diamine] |
| ≤ 50 | C[C@H](Nc1ccnc(NCCc2ccccc2)n1)c1ccccc1 [N^4-[(1S)-1-Phenylethyl]-N^2-(2-phenylethyl)pyrimidine-2,4-diamine] |
